Laboratory results as given in patent US11566007B2, “Ras inhibitors” (Revolution Medicines, Inc., priority 2019, dated 2023).

Key:
K-Ras G12C = K-Ras G12C (Homo sapiens (Human), UniProt P01116+P62937, G12C); assay: Ras-Raf (BRAF RBD) disruption / FRET / MOA assay, KRAS G12C; format: biochemical; settings: KRAS G12C; Ras-Raf disruption/FRET/MOA assay; read-out: IC50* KRAS G12C FRET data
Outline: (§1)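 Ras:RAF disruption was scored as a fall in TR-FRET ratio relative to DMSO. Compound ranged in 3-fold steps over 10 points from 30 μM final; incubation ran 3 h at 25° C, detection antibodies a further 1.5 h. Reported as IC50.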

KRAS G12S = KRAS G12S (Homo sapiens (Human), UniProt P01116+P62937, G12S); assay: Ras-Raf (BRAF RBD) disruption / FRET / MOA assay, KRAS G12S; format: biochemical; settings: Ras-Raf disruption/FRET/MOA assay; class symbols; read-out: KRAS G12S FRET data IC50
Outline: as §1

KRAS G12D = KRAS G12D (Homo sapiens (Human), UniProt P01116+P62937, G12D); assay: Ras-Raf (BRAF RBD) disruption / FRET / MOA assay, KRAS G12D; format: biochemical; settings: Ras-Raf disruption/FRET/MOA assay; class symbols; read-out: KRAS G12D FRET data IC50
Outline: as §1

KRAS G12V = KRAS G12V (Homo sapiens (Human), UniProt P01116+P62937, G12V); assay: Ras-Raf (BRAF RBD) disruption / FRET / MOA assay, KRAS G12V; format: biochemical; settings: read-out: IC50* KRAS G12V FRET data
Outline: as §1

NRAS G12C = NRAS G12C (Homo sapiens (Human), UniProt P01111+P62937, G12C); assay: Ras-Raf (BRAF RBD) disruption / FRET / MOA assay, NRAS G12C; format: biochemical; settings: read-out: IC50* NRAS G12C FRET data
Outline: as §1

KRAS G13D = KRAS G13D (Homo sapiens (Human), UniProt P01116+P62937, G13D); assay: Ras-Raf (BRAF RBD) disruption / FRET / MOA assay, KRAS G13D; format: biochemical; settings: read-out: IC50* KRAS G13D FRET data
Outline: as §1

NCI-H358 (K-Ras G12C) = assay: CellTiter-Glo cell viability assay, NCI-H358; format: cell-based, human; settings: Homo sapiens, NCI-H358, 120 h, NCI-H358, 5-day treatment; class symbols; read-out: Additional H358 Cell Viability assay data (K-Ras G12C, IC50)
Outline: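 Viability measured by CellTiter-Glo luminescence on day 5 following direct addition of compound to plated cells. Values expressed as percent of mean DMSO signal; curves fitted with a four-parameter logistic model.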

K-Ras G13C = K-Ras G13C (Homo sapiens (Human), UniProt P01116+P62937, G13C); assay: Ras-Raf (BRAF RBD) disruption / FRET / MOA assay, KRAS G13C; format: biochemical; settings: KRAS G13C; Ras-Raf disruption/FRET/MOA assay; read-out: IC50* KRAS G13C FRET data
Outline: as §1

KRAS WT = KRAS WT (Homo sapiens (Human), UniProt P01116+P62937); assay: Ras-Raf (BRAF RBD) disruption / FRET / MOA assay, KRAS WT; format: biochemical; settings: read-out: IC50* KRAS WT FRET data
Outline: as §1

[1] = system: NCI-H358 cells (K-Ras G12C); assay: Potency assay: pERK in NCI-H358 cells; format: cell-based, human; settings: Homo sapiens, NCI-H358; H358 KRAS G12C; read-out: pERK EC50
Outline: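 4 h cpd, 37 °C; 10-pt 3-fold series, 10 mM DMSO top stock, duplicates. Readout pERK: AlphaLISA SureFire Ultra or In-Cell Western (IR-800CW secondary, DRAQ5 DNA stain). IC50, 4-PL fit vs log conc.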

Chain of KRAS WT (P01116-2 other isoform, or with tags, fused parts or gaps): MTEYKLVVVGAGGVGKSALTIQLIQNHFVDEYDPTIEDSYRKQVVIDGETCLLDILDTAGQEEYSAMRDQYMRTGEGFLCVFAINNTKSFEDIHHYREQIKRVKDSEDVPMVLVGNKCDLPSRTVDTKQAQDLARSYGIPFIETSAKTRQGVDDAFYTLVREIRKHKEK
Chain of KRAS WT (P62937 whole entry): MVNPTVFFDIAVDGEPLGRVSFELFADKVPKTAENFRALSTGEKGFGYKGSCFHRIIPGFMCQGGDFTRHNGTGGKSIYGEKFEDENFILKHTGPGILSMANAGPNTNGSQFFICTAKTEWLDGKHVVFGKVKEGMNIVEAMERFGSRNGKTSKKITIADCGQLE
Chain of KRAS G12D (P01116-2 other isoform, or with tags, fused parts or gaps G12D): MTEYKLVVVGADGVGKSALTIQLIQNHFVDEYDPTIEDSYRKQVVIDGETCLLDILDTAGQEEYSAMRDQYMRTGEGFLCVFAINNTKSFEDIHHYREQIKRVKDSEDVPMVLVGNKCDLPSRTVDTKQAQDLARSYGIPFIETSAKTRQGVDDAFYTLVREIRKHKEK
Chain of KRAS G12D (P62937 whole entry): as the sequence (P62937 whole entry) above
Chain of NRAS G12C (P01111 whole entry G12C): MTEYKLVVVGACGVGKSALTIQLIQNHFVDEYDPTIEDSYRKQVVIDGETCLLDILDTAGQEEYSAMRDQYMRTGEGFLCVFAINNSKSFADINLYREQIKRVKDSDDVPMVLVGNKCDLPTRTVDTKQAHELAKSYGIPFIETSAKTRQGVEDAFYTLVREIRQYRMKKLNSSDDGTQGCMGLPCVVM
Chain of NRAS G12C (P62937 whole entry): as the sequence (P62937 whole entry) above
Chain of K-Ras G12C (P01116-2 other isoform, or with tags, fused parts or gaps G12C): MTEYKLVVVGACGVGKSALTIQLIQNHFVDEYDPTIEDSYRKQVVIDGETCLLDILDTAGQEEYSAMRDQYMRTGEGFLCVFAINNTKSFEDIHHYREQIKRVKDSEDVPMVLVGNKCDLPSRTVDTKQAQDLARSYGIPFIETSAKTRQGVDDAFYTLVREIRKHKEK
Chain of K-Ras G12C (P62937 whole entry): as the sequence (P62937 whole entry) above
Chain of KRAS G12V (P01116-2 other isoform, or with tags, fused parts or gaps G12V): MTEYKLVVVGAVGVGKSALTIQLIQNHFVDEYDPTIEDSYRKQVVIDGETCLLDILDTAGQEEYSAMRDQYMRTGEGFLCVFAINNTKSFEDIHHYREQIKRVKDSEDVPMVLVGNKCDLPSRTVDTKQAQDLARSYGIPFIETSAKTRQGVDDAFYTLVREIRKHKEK
Chain of KRAS G12V (P62937 whole entry): as the sequence (P62937 whole entry) above
Chain of KRAS G12S (P01116-2 other isoform, or with tags, fused parts or gaps G12S): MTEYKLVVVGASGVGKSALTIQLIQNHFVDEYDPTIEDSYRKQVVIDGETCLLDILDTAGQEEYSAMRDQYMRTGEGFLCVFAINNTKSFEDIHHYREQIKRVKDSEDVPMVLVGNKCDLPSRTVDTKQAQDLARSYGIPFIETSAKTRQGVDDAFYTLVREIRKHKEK
Chain of KRAS G12S (P62937 whole entry): as the sequence (P62937 whole entry) above
Chain of K-Ras G13C (P01116-2 other isoform, or with tags, fused parts or gaps G13C): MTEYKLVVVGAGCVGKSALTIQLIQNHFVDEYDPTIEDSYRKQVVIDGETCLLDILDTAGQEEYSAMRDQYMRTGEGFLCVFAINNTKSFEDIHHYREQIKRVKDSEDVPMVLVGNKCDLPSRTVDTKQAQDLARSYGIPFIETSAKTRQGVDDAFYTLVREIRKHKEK
Chain of K-Ras G13C (P62937 whole entry): as the sequence (P62937 whole entry) above
Chain of KRAS G13D (P01116-2 other isoform, or with tags, fused parts or gaps G13D): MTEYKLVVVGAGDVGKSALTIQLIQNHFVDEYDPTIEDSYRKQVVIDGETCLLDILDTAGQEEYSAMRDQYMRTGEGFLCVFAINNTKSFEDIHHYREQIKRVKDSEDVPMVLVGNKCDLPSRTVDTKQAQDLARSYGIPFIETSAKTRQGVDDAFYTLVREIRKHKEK
Chain of KRAS G13D (P62937 whole entry): as the sequence (P62937 whole entry) above

SMILES	IC50 (K-Ras G12C) [nM]	IC50 (KRAS G12S) [nM]	IC50 (KRAS G12D) [nM]	IC50 (KRAS G12V) [nM]	IC50 (NRAS G12C) [nM]	IC50 (KRAS G13D) [nM]	IC50 (NCI-H358 (K-Ras G12C)) [nM]	IC50 (K-Ras G13C) [nM]	IC50 (KRAS WT) [nM]	EC50 [1] [nM]
C=CC(=O)N1CC[C@H](C(=O)N(C)[C@H](C(=O)N[C@H]2Cc3csc(n3)-c3ccc4c(c3)c(c(-c3cc(N5CCN(C)CC5)cnc3[C@H](C)OC)n4CC(F)(F)F)CC(C)(C)COC(=O)[C@@H]3CCCN(N3)C2=O)C(C)C)C1 [Example A410]	10 to 100	100 to 1000	1000 to 10000	100 to 1000	10 to 100	100 to 1000	< 10	100 to 1000	100 to 1000	< 5000
CCn1c(-c2cccnc2)c2c3cc(ccc31)-c1csc(n1)C[C@H](NC(=O)[C@H](C(C)C)N(C)C(=O)[C@H]1CCN(C(=O)C#CCN3CCOCC3)C1)C(=O)N1CCC[C@H](N1)C(=O)OCC(C)(C)C2 [Example A190]	100 to 1000	> 10000	> 10000	> 10000	100 to 1000	> 10000	100 to 1000	> 10000	> 10000	< 5000
C=CC(=O)N1CC[C@H](C(=O)N(C)[C@H](C(=O)N[C@H]2Cc3cccc(c3)-c3ccc4c(c3)c(c(-c3cccnc3[C@H](C)OC)n4CC)CC(C)(C)COC(=O)[C@@H]3CCCN(N3)C2=O)C2COC2)C1 (atropisomer, axis not shown) [Example A469]	100 to 1000	1000 to 10000	> 10000	1000 to 10000	100 to 1000	1000 to 10000	100 to 1000	1000 to 10000	1000 to 10000	< 5000
CCn1c(-c2cccnc2)c2c3cc(ccc31)-c1cc(O)cc(c1)C[C@H](NC(=O)[C@H](C(C)C)N(C)C(=O)[C@H]1CCN(C(=O)C#CCN(C)C)C1)C(=O)N1CCC[C@H](N1)C(=O)OCC(C)(C)C2 [Example A142]	10 to 100	> 10000	1000 to 10000	> 10000	10 to 100	1000 to 10000	100 to 1000	100 to 1000	> 10000	< 5000
CCn1c(-c2cccnc2)c2c3cc(ccc31)-c1cccc(c1)C[C@H](NC(=O)[C@H](C(C)C)N(C)C(=O)[C@H]1CCN(C(=O)C#CCN3CCOCC3)C1)C(=O)N1CCC[C@H](N1)C(=O)OCC(C)(C)C2 [Example A195]	100 to 1000	> 10000	> 10000	> 10000	100 to 1000	> 10000	100 to 1000	> 10000	> 10000	< 5000
C=CC(=O)N1CC[C@H](C(=O)N(C)[C@H](C(=O)N[C@H]2Cc3cc(O)cc(c3)-c3ccc4c(c3)c(c(-c3ccc(COC)cc3CN(C)C)n4CC)CC(C)(C)COC(=O)[C@@H]3CCCN(N3)C2=O)C(C)C)C1 [Example A127]	10 to 100	100 to 1000	1000 to 10000	100 to 1000	10 to 100	1000 to 10000	100 to 1000	100 to 1000	1000 to 10000	< 5000
CCn1c(-c2cnccc2[C@H](C)OC)c2c3cc(ccc31)-c1cc(O)cc(c1)C[C@H](NC(=O)[C@H](C(C)C)N(C)C(=O)[C@H]1CCN(C(=O)C#CCN(C)C)C1)C(=O)N1CCC[C@H](N1)C(=O)OCC(C)(C)C2 [Example A123]	10 to 100	100 to 1000	100 to 1000	100 to 1000	< 10	100 to 1000	< 10	10 to 100	100 to 1000	< 5000
C=CC(=O)N1CC2(C1)CN(C(=O)N(C)[C@H](C(=O)N[C@H]1Cc3nc(cs3)-c3ccc4c(c3)c(c(-c3cccnc3[C@H](C)OC)n4CC)CC(C)(C)COC(=O)[C@@H]3CCCN(N3)C1=O)C(C)C)CCO2 (atropisomer, axis not shown) [Example A431]	100 to 1000	100 to 1000	1000 to 10000	100 to 1000	100 to 1000	1000 to 10000	10 to 100	100 to 1000	100 to 1000	< 5000
C=CC(=O)N1C[C@@H](C)[C@H](C(=O)N(C)[C@H](C(=O)N[C@H]2Cc3cccc(c3)-c3ccc4c(c3)c(c(-c3cccnc3[C@H](C)OC)n4CC)CC(C)(C)COC(=O)[C@@H]3CCCN(N3)C2=O)C(C)C)C1 (atropisomer, axis not shown) [Example A497]	100 to 1000	> 10000	> 10000	> 10000	100 to 1000	> 10000	10 to 100	100 to 1000	1000 to 10000	< 5000
C=CC(=O)N1CC[C@H](C(=O)N(C)[C@H](C(=O)N[C@H]2Cc3cccc(c3)-c3ccc4c(c3)c(c(-c3cccnc3[C@H](C)OC)n4CC)CC(C)(C)COC(=O)[C@@H]3CCCN(N3)C2=O)C2CC2)C1 (atropisomer, axis not shown) [Example A320]	100 to 1000	1000 to 10000	> 10000	1000 to 10000	100 to 1000	> 10000	10 to 100	1000 to 10000	1000 to 10000	< 5000
CC#CC(=O)N1CC[C@]2(CCN([C@H](C(=O)N[C@H]3Cc4nc(cs4)-c4ccc5c(c4)c(c(-c4cccnc4[C@H](C)OC)n5CC)CC(C)(C)COC(=O)[C@@H]4CCCN(N4)C3=O)C(C)C)C2=O)C1 (atropisomer, axis not shown) [Example A511]	100 to 1000	1000 to 10000	> 10000	1000 to 10000	100 to 1000	1000 to 10000	< 10	1000 to 10000	1000 to 10000	< 5000
C=CC(=O)N1CC[C@H](C(=O)N(C)[C@H](C(=O)N[C@H]2Cc3cc(O)cc(c3)-c3ccc4c(c3)c(c(-c3ccc(CN(C)C)c(COC)c3)n4CC)CC(C)(C)COC(=O)[C@@H]3CCCN(N3)C2=O)C(C)C)C1 [Example A111]	100 to 1000	1000 to 10000	> 10000	1000 to 10000	100 to 1000	1000 to 10000	10 to 100	1000 to 10000	1000 to 10000	< 5000
